Data as given in patent US4153710A, “N-(4-[2-(pyrazole-1-carbonamide)-ethyl]-benzenesulphonyl)-urea” (Starogardzkie Zaklady Farmaceutyczne POLFA, priority 1976, dated 1979).

Assays:
insulin concentration [1] = assay: Insulin in normal men volunteers (Table 7); type: in vivo; conditions: oral 5 mg SPC-5002 or 12.5 mg Glibornuride
Protocol: (§1) When administered to normal men volunteers it has been stated that 60 minutes after the administration of SPC-5002 a 5 mg oral dose causes the decrease in blood-glucose of 28% in comparision to the starting value and after 90 minutes it reaches 33% (Table 7). Whereas Glibornuride employed in a dose 2.5 times as big on peak of its activity decreases the glucose blood level only of 19%. It can clearly be noticed that there is a positive correlation between the glycemic and insulin level curves. Both examined preparations cause a significant decrease in free fatty acids in blood. […] 60 and 90 minutes after the SPC-5002 administration, the blood-glycose level is decreased to 33 and 52% while in the Placebo group it is maintained in the range of 13-14%.
(§2) The comparison of glucose, insulin and free fatty acids concentration in
(§3) normal men after the oral administration of 5 mg of SPC-5002 or 12.5 mg

[2] = Acute, subacute and protracted toxicity (6 months); type: in vivo
insulin concentration [3] = assay: Insulin in normal men after a meal (Table 8); type: in vivo; conditions: for Insulin concentration: normal men, meal, oral 10 mg
Protocol: as §1
(§4) The comparison of glucose concentration changes in voluntary-normal men
(§5) eaten a meal and the oral administration of 10 mg of SPC-5002 or Placebo

[4] = Oral toxicity in rats (LD50); conditions: rat, in vivo
[5] = test system: blood-glucose concentration; assay: Blood-glucose time course up to 24 hours in rabbits (Table 4); type: in vivo; conditions: for glucose concentration in blood, average: oral 5 mg/kg
Protocol: The hypoglycemic activity of N-{4-[2-(pyrazole-1-carbonamide)-ethyl]-benzenesulphonyl}-ureas prepared according to the present invention can be noticed after their oral administration to mice, rats, rabbits and people and when determining the glucose concentration in blood with a known enzymatic method using glucose oxidase. […]
(§6) The comparison of SPC-5002 and Glibornuride effect on changes in
concentration of rabbits in time up to 24 hours from the moment of the
in an oral dose containing 5 mg/kg body weight

glucose concentration = assay: Blood glucose in normal men after a meal (Table 8); type: in vivo; conditions: for blood-glycose level decrease: normal men after meal; for Glucose concentration / % of changes in glucose concentration: meal, oral 10 mg
Protocol: (§7) The hypoglycemic activity of N-{4-[2-(pyrazole-1-carbonamide)-ethyl]-benzenesulphonyl}-ureas prepared according to the present invention can be noticed after their oral administration to mice, rats, rabbits and people and when determining the glucose concentration in blood with a known enzymatic method using glucose oxidase.
as §1, §4, §5

[6] = test system: calcium transmission in mitochondria of a rat's liver; assay: Calcium transmission to rat liver mitochondria; type: biochemical; conditions: for % of inhibition, calcium transmission: medium with CaCl 300 nmoles/ml
Protocol: Sucrose 170mM, KCl 10 mM, MgCl2 […], K2 HPO 5 mM, EGTA 0.01 mM
2-oxoglutaran 2 mM, ADP 1 mM, mitochondria
protein 4 mg/m. Temperature 25° C.
of hydrogen ion consumption. The calcium transmission to mitochondria was
studied with two methods; in a continuous way with a Radiometer calcium
electrode type F2112 or with an isotopic method.
*The medium contained Ca Cl 300 nmoles/ml.

[7] = test system: blood-glucose concentration; assay: Hypoglycemic activity in three animal species versus Glibornuride; type: in vivo, mice, rats, rabbits; conditions: parenteral and oral
Protocol: as §7
(§8) (Table 2). […] It has been observed that even 9 hours after the administration of one dose of SPC-5002 to rats, the glucose level in blood was decreased, whereas in the case of Glibornuride the glucose level comes back to its normal value in 6 hours from the time of the administration.

[8] = test system: free fatty acids concentration; assay: Free fatty acids in normal men volunteers (Table 7); type: in vivo; conditions: oral 5 mg SPC-5002 or 12.5 mg Glibornuride
Protocol: as §1, §2, §3

[9] = test system: blood-glucose concentration; assay: ED30 oral hypoglycemic dose in rabbits (Table 2); type: in vivo; conditions: Oryctolagus cuniculus, read-out: Effective oral doses ED30
Protocol: as §7, §8

[10] = Oral toxicity in mice (LD50); conditions: mouse, in vivo
[11] = test system: oxygen consumption in mitochondria of a rat's liver; assay: Oxygen consumption of rat liver mitochondria; type: biochemical
Protocol: 2-oxoglutaran 2 mM, ADP 1 mM, mitochondria | protein 4 mg/m. […] The

[12] = test system: blood-glucose concentration; assay: Blood-glucose time course up to 24 hours in rats (Table 3); type: in vivo; conditions: for glucose concentration in blood, average: oral 4 mg/kg
Protocol: as §7, §8, §6
concentration of rats in time up to 24 hours from the moment of the
in an oral dose containing 4 mg/kg body weight

[13] = test system: blood-glucose concentration; assay: ED30 oral hypoglycemic dose in mice (Table 2); type: in vivo; conditions: Mus musculus, oral, read-out: Effective oral doses ED30
Protocol: as §7, §8

Cc1ccn(C(=O)NCCc2ccc(S(=O)(=O)NC(=O)NC3CCCCC3)cc2)n1 [SPC-5002, N-{4-[2-(3-methylpyrazole-1-carbonamide)-ethyl]-benzenesulphonyl}-N'-cyclohexylourea]
Insulin concentration (insulin concentration [1]; 0 mins (empty stomach)): 4.0 μU/cc | Insulin concentration (insulin concentration [1]; 30 mins): 9.2 μU/cc | Insulin concentration (insulin concentration [1]; 60 mins): 13.5 μU/cc | Insulin concentration (insulin concentration [1]; 90 mins): 7.3 μU/cc | Insulin concentration (insulin concentration [1]; 120 mins): 5.0 μU/cc | Insulin concentration (insulin concentration [1]; 180 mins): 3.2 μU/cc | changes in haematopoietic system ([2]; 6 months administration): No changes in the haematopoietic system | effect on liver and kidneys ([2]; 6 months administration): did not handicap the activities of the liver and kidneys | general number of white blood corpuscles ([2]; 6 months administration): did not influence the general number of white blood corpuscles | toxicity ([2]; acute, subacute and protracted toxicity): extremely low toxicity | body weight, consumption of food and water ([2]; compared with control group): did not reveal any differences between the control group and the group under examination | insulin concentration relative to placebo group (insulin concentration [3]; normal men after meal, 60 minutes): twice as high as that in the placebo group | Insulin concentration (insulin concentration [3]; 0 mins (empty stomach)): 7 μU/cc | Insulin concentration (insulin concentration [3]; 30 mins): 50 μU/cc | Insulin concentration (insulin concentration [3]; 60 mins): 55 μU/cc | Insulin concentration (insulin concentration [3]; 90 mins): 17 μU/cc | Insulin concentration (insulin concentration [3]; 120 mins): 8 μU/cc | Insulin concentration (insulin concentration [3]; 180 mins): 8 μU/cc | LD50 [4]: > 15000 mg/kg | effectiveness and duration relative to Glibornuride [5]: more effective and longer activity in comparison to Glibornuride | glucose concentration in blood, average ([5]; 0 h): 71 mg/100 cc | glucose concentration in blood, average ([5]; 0.5 h): 57 mg/100 cc | glucose concentration in blood, average ([5]; 1 h): 59 mg/100 cc | glucose concentration in blood, average ([5]; 3 h): 63 mg/100 cc | glucose concentration in blood, average ([5]; 6 h): 62 mg/100 cc | glucose concentration in blood, average ([5]; 9 h): 62 mg/100 cc | glucose concentration in blood, average ([5]; 24 h): 70 mg/100 cc | blood-glycose level decrease (glucose concentration; 60 minutes): 33% | blood-glycose level decrease (glucose concentration; 90 minutes): 52% | glucose increase vs starting value (glucose concentration; normal men, 30 minutes after the meal): 34% | Glucose concentration (glucose concentration; normal men, 0 mins (empty stomach)): 89 mg/100 cc | % of changes in glucose concentration (glucose concentration; normal men, 30 mins): +34% | Glucose concentration (glucose concentration; normal men, 30 mins): 119 mg/100 cc | % of changes in glucose concentration (glucose concentration; normal men, 60 mins): -33% | Glucose concentration (glucose concentration; normal men, 60 mins): 60 mg/100 cc | % of changes in glucose concentration (glucose concentration; normal men, 90 mins): -52% | Glucose concentration (glucose concentration; normal men, 90 mins): 43 mg/100 cc | % of changes in glucose concentration (glucose concentration; normal men, 120 mins): -21% | Glucose concentration (glucose concentration; normal men, 120 mins): 70 mg/100 cc | % of changes in glucose concentration (glucose concentration; normal men, 180 mins): 0% | Glucose concentration (glucose concentration; normal men, 180 mins): 89 mg/100 cc | % of inhibition, calcium transmission ([6]; concentration 0.05 n M): 8% | Calcium transmission / Oxide consumption (ratio of inhibition) ([6]; concentration 0.1 n M): 1.75 | % of inhibition, calcium transmission ([6]; concentration 0.1 n M): 21% | Calcium transmission / Oxide consumption (ratio of inhibition) ([6]; concentration 0.3 n M): 1.42 | % of inhibition, calcium transmission ([6]; concentration 0.3 n M): 30% | Calcium transmission / Oxide consumption (ratio of inhibition) ([6]; concentration 0.5 n M): 1.55 | % of inhibition, calcium transmission ([6]; concentration 0.5 n M): 53% | Calcium transmission / Oxide consumption (ratio of inhibition) ([6]; concentration 1.0 n M): 0.99 | % of inhibition, calcium transmission ([6]; concentration 1.0 n M): 68% | Ki ([6]; rat liver mitochondria): 450 µM | preference of inhibition: calcium transmission versus oxidizing processes ([6]; rat liver mitochondria): preferential inhibiting of calcium transmission | Ki ratio SPC-5002 / Glibenclamide, calcium transmission ([6]; ratio of inhibitor constants): 10 | hypoglycemic activity relative to Glibornuride [7]: about twice as active as Glibornuride | Free fatty acids concentration ([8]; 0 mins (empty stomach)): 0.63 mEq/1000 cc | Free fatty acids concentration ([8]; 30 mins): 0.48 mEq/1000 cc | Free fatty acids concentration ([8]; 60 mins): 0.46 mEq/1000 cc | Free fatty acids concentration ([8]; 90 mins): 0.48 mEq/1000 cc | Free fatty acids concentration ([8]; 120 mins): 0.51 mEq/1000 cc | Free fatty acids concentration ([8]; 180 mins): 0.52 mEq/1000 cc | ED30 [9]: 5.5 mg/kg | LD50 [10]: > 20000 mg/kg | effect on oxidation ([11]; 0.05 nM): no effect | % of inhibition, oxygen consumption ([11]; concentration 0.05 n M): 0% | % of inhibition, oxygen consumption ([11]; concentration 0.1 n M): 12% | % of inhibition, oxygen consumption ([11]; concentration 0.3 n M): 21% | % of inhibition, oxygen consumption ([11]; concentration 0.5 n M): 34% | % of inhibition, oxygen consumption ([11]; concentration 0.7 n M): 47% | % of inhibition, oxygen consumption ([11]; concentration 1.0 n M): 69% | Ki ([11]; rat liver mitochondria): 750 µM | duration of decreased blood glucose after one dose ([12]; one dose): ≥ 9 h | duration of hypoglycemic activity relative to Glibornuride ([12]; one dose): longer hypoglycemic activity than the administration of Glibornuride | glucose concentration in blood, average ([12]; 0 h): 82 mg/100 cc | glucose concentration in blood, average ([12]; 1 h): 58 mg/100 cc | glucose concentration in blood, average ([12]; 3 h): 45 mg/100 cc | glucose concentration in blood, average ([12]; 6 h): 65 mg/100 cc | glucose concentration in blood, average ([12]; 9 h): 70 mg/100 cc | glucose concentration in blood, average ([12]; 24 h): 85 mg/100 cc | ED30 [13]: 1.9 mg/kg
